The target in this experiment is T1, bDAD (DAD V1M) (Burkholderia sp. AZ11, UniProt F7J5X4, V1M).
T1 sequence (F7J5X4 1-177): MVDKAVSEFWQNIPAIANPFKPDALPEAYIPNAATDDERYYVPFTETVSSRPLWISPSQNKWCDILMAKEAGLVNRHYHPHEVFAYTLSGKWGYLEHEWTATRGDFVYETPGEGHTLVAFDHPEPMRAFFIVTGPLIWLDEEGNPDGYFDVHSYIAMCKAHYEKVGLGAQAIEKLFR
Nature of the experiment: UV absorbance at […] nm, DHA consumption. Format: biochemical.

Consider one molecule from publication PMC7484352 (Archives of biochemistry and biophysics, 2020).

By Ki is commonly meant a dissociation constant, usually derived from enzyme kinetics or from competition with a known ligand. The molecule `O=C(O)c1ccc(O)cc1` [4HB, 4-hydroxybenzoic acid] displayed a Ki of 1100 ± 400 µM.
